# Test results as given in ChEMBL document CHEMBL4480422, “Alkyl derivatives of 1,3,5-triazine as histamine H4 receptor ligands” (Bioorg Med Chem, 2019).
# The source made the active and inactive calls.
# Legend:
# Histamine H4 receptor [1] = molecular target: T1, Histamine H4 receptor (Homo sapiens, UniProt Q9H3N8); experiment: Displacement of [3H]-histamine from recombinant human H4 receptor expressed in Sf9 cell membranes co-expressing Galphai2/Gbeta1gamma2
# Rattus norvegicus [2] = experiment: Anti-inflammatory activity in Wistar (Krf:(WI) WU) rat model of carrageenan-induced paw edema assessed as hind paw volume at 25 mg/kg, ip administered as single dose prior to carrageenan challenge and measured after 3 hrs by plethysmometer (reference value: 130%); format: functional
# Mus musculus [3] = experiment: (§1) Antinociceptive activity in formalin-induced nociception pain Albino Swiss CD-1 mouse model assessed as reduction in time spent licking or biting formalin injected right hind paw in early phase at 25 mg/kg, ip pretreated followed by formalin injection and measured up to 5 mins; format: functional, organism-based
# Mus musculus [4] = experiment: as §1, with “in inflammatory” for “in early”, “measured after 15” for “measured up”, “to 30” for “to 5”, “mins relative to control” for “mins”; format: functional; design: scale not given: the % may be the effect or the level left
# Rattus norvegicus [5] = experiment: Anti-inflammatory activity in Wistar (Krf:(WI) WU) rat model of carrageenan-induced thermal hyperalgesia assessed as paw withdrawal latency time at 25 mg/kg, ip administered as single dose prior to carrageenan challenge and measured after 2 hrs by plantar test (reference value: 4.03 +/- 0.7 s); format: functional
# Rattus norvegicus [6] = experiment: Anti-inflammatory activity in Wistar (Krf:(WI) WU) rat model of carrageenan-induced paw edema assessed as hind paw volume at 25 mg/kg, ip administered as single dose prior to carrageenan challenge and measured after 2 hrs by plethysmometer (reference value: 103%); format: functional
# Rattus norvegicus [7] = experiment: Anti-inflammatory activity in Wistar (Krf:(WI) WU) rat model of carrageenan-induced thermal hyperalgesia assessed as paw withdrawal latency time at 25 mg/kg, ip administered as single dose prior to carrageenan challenge and measured after 1 hr by plantar test (reference value: 4.79 +/- 0.99 s); format: functional
# Rattus norvegicus [8] = experiment: Anti-inflammatory activity in Wistar (Krf:(WI) WU) rat model of carrageenan-induced mechanical hyperalgesia assessed as increase in paw withdrawal threshold at 25 mg/kg, ip administered as single dose prior to carrageenan challenge and measured after 3 hrs; format: functional, organism-based
# Rattus norvegicus [9] = experiment: Anti-inflammatory activity in Wistar (Krf:(WI) WU) rat model of carrageenan-induced paw edema assessed as hind paw volume at 25 mg/kg, ip administered as single dose prior to carrageenan challenge and measured after 1 hr by plethysmometer (reference value: 49%); format: functional
# Mus musculus [10] = experiment: Effect on spontaneous locomotor activity in Albino Swiss CD-1 mouse assessed as decrease in number of light beam crossings at 75 mg/kg, ip treated prior to test and measured for next 30 mins relative to control; format: ADME, organism-based; design: scale not given: the % may be the effect or the level left; conditions: in vivo, 0.5 h
# Mus musculus [11] = experiment: (§2) Antinociceptive activity in ip dosed formalin-induced nociception pain Albino Swiss CD-1 mouse model assessed as reduction in time spent licking or biting formalin injected right hind paw in inflammatory phase pretreated followed by formalin injection and measured after 15 to 30 mins; format: functional; conditions: Swiss CD-1, ip
# Rattus norvegicus [12] = experiment: Anti-inflammatory activity in Wistar (Krf:(WI) WU) rat model of carrageenan-induced paw edema assessed as hind paw volume at 12.5 mg/kg, ip administered as single dose prior to carrageenan challenge and measured after 3 hrs by plethysmometer (reference value: 130%); format: functional
# Rattus norvegicus [13] = experiment: Anti-inflammatory activity in Wistar (Krf:(WI) WU) rat model of carrageenan-induced mechanical hyperalgesia assessed as increase in paw withdrawal threshold at 12.5 to 50 mg/kg, ip administered as single dose prior to carrageenan challenge and measured after 3 hrs; format: functional, organism-based
# [14] = molecular target: T2, Muscarinic acetylcholine receptor M3 (Cavia porcellus, UniProt Q8VH26); experiment: Agonist activity at muscarinic M3 receptor in guinea-pig ileum assessed as induction of contractions after 15 mins; format: tissue-based; conditions: 0.25 h
# Rattus norvegicus [15] = experiment: Anti-inflammatory activity in Wistar (Krf:(WI) WU) rat model of carrageenan-induced thermal hyperalgesia assessed as paw withdrawal latency time at 25 mg/kg, ip administered as single dose prior to carrageenan challenge and measured after 3 hrs by plantar test (reference value: 3.03 +/- 0.4 s); format: functional
# Histamine H4 receptor [16] = molecular target: T1, Histamine H4 receptor; experiment: Agonist activity at recombinant human H4 receptor expressed in CHOK1 cells co-expressing Galpha16/aequorin assessed as increase in intracellular calcium flux incubated for 1 hr measured for 30 secs in presence of coelenterazine by luminescence assay; format: functional, cell-based
# [17] = Neurotoxicity in Albino Swiss CD-1 mouse assessed as motor impairment at 25 to 75 mg/kg, ip treated 30 mins prior to test by rotarod test; format: toxicity, organism-based; conditions: in vivo, 0.5 h
# Histamine H1 receptor = Histamine H1 receptor (Cavia porcellus, UniProt P31389); experiment: Antagonist activity at histamine H1 receptor in guinea-pig ileum assessed as inhibition of histamine-induced contractions after 15 mins; format: tissue-based; conditions: read-out: pA2 (converted)
# Mus musculus [18] = experiment: Antinociceptive activity in formalin-induced nociception pain Albino Swiss CD-1 mouse model assessed as reduction in time spent licking or biting formalin injected right hind paw in early phase at 75 mg/kg, ip pretreated followed by formalin injection and measured up to 5 mins; format: functional, organism-based
# Rattus norvegicus [19] = experiment: Anti-inflammatory activity in Wistar (Krf:(WI) WU) rat model of carrageenan-induced paw edema assessed as reduction in hind paw volume administered as single ip dose prior to carrageenan challenge and measured after 1 to 3 hrs by plethysmometer; format: functional, organism-based
# Histamine H4 receptor [20] = molecular target: T1, Histamine H4 receptor; conditions: Sf9
# Rattus norvegicus [21] = experiment: Anti-inflammatory activity in Wistar (Krf:(WI) WU) rat model of carrageenan-induced thermal hyperalgesia assessed as paw withdrawal latency time at 50 mg/kg, ip administered as single dose prior to carrageenan challenge and measured after 1 hr by plantar test (reference value: 4.79 +/- 0.99 s); format: functional
# Mus musculus [22] = experiment: as §2, with “in” for “in ip dosed”, “phase at 50 mg/kg, ip” for “phase”, “mins relative to control” for “mins”; format: functional; design: scale not given: the % may be the effect or the level left
# Histamine H4 receptor [23] = molecular target: T1, Histamine H4 receptor; experiment: Agonist activity at recombinant human H4 receptor expressed in Sf9 cell membranes co-expressing Galphai2/Gbeta1gamma2 measured after 1 hr in presence of [35S]GTPgammaS by liquid scintillation counting method; format: functional
# Rattus norvegicus [24] = experiment: Anti-inflammatory activity in Wistar (Krf:(WI) WU) rat model of carrageenan-induced paw edema assessed as hind paw volume at 50 mg/kg, ip administered as single dose prior to carrageenan challenge and measured after 3 hrs by plethysmometer (reference value: 130%); format: functional
# Rattus norvegicus [25] = experiment: Anti-inflammatory activity in Wistar (Krf:(WI) WU) rat model of carrageenan-induced thermal hyperalgesia assessed as paw withdrawal latency time at 50 mg/kg, ip administered as single dose prior to carrageenan challenge and measured after 3 hrs by plantar test (reference value: 3.03 +/- 0.4 s); format: functional
# Rattus norvegicus [26] = experiment: Anti-inflammatory activity in Wistar (Krf:(WI) WU) rat model of carrageenan-induced paw edema assessed as hind paw volume at 12.5 mg/kg, ip administered as single dose prior to carrageenan challenge and measured after 1 hr by plethysmometer (reference value: 49%); format: functional
# [27] = molecular target: Histamine H1 receptor (Cavia porcellus) (UniProt P31389); experiment: Agonist activity at histamine H1 receptor in guinea-pig ileum assessed as induction of contractions after 15 mins; format: tissue-based
# Histamine H4 receptor [28] = molecular target: T1, Histamine H4 receptor; experiment: Antagonist activity at recombinant human H4 receptor expressed in CHOK1 cells co-expressing Galpha16/aequorin assessed as inhibition of histamine-induced intracellular calcium flux preincubated for 30 mins followed by histamine addition and measured for 30 secs in presence of coelenterazine by luminescence assay; format: functional, cell-based
# Rattus norvegicus [29] = experiment: Anti-inflammatory activity in Wistar (Krf:(WI) WU) rat model of carrageenan-induced paw edema assessed as hind paw volume at 12.5 mg/kg, ip administered as single dose prior to carrageenan challenge and measured after 2 hrs by plethysmometer (reference value: 103%); format: functional
# Rattus norvegicus [30] = experiment: Anti-inflammatory activity in Wistar (Krf:(WI) WU) rat model of carrageenan-induced paw edema assessed as hind paw volume at 50 mg/kg, ip administered as single dose prior to carrageenan challenge and measured after 2 hrs by plethysmometer (reference value: 103%); format: functional
# [31] = molecular target: T2, Muscarinic acetylcholine receptor M3; experiment: Antagonist activity at muscarinic M3 receptor in guinea-pig ileum assessed as inhibition of carbachol-induced contractions after 15 mins; format: tissue-based; conditions: read-out: pA2 (converted)
# Rattus norvegicus [32] = experiment: Anti-inflammatory activity in Wistar (Krf:(WI) WU) rat model of carrageenan-induced paw edema assessed as hind paw volume at 50 mg/kg, ip administered as single dose prior to carrageenan challenge and measured after 1 hr by plethysmometer (reference value: 49%); format: functional
# Rattus norvegicus [33] = experiment: Anti-inflammatory activity in Wistar (Krf:(WI) WU) rat model of carrageenan-induced thermal hyperalgesia assessed as paw withdrawal latency time at 50 mg/kg, ip administered as single dose prior to carrageenan challenge and measured after 2 hrs by plantar test (reference value: 4.03 +/- 0.7 s); format: functional
# Mus musculus [34] = experiment: Effect on spontaneous locomotor activity in Albino Swiss CD-1 mouse assessed as change in number of light beam crossings at 25 to 50 mg/kg, ip treated prior to test and measured for next 30 mins; format: ADME, organism-based; conditions: in vivo, 0.5 h
# T1 sequence (Q9H3N8 whole entry): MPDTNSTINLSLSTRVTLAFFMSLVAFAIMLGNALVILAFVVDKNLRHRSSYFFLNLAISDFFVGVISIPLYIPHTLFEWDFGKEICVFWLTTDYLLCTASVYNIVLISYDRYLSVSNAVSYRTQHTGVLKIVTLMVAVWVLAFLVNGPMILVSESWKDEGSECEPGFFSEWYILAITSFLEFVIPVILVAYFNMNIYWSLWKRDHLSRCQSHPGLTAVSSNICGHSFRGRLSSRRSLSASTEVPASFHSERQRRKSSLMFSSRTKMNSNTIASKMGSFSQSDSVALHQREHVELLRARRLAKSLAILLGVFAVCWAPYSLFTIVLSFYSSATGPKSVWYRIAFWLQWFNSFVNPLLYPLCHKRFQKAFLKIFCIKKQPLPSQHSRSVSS
# T2 sequence (Q8VH26 whole entry): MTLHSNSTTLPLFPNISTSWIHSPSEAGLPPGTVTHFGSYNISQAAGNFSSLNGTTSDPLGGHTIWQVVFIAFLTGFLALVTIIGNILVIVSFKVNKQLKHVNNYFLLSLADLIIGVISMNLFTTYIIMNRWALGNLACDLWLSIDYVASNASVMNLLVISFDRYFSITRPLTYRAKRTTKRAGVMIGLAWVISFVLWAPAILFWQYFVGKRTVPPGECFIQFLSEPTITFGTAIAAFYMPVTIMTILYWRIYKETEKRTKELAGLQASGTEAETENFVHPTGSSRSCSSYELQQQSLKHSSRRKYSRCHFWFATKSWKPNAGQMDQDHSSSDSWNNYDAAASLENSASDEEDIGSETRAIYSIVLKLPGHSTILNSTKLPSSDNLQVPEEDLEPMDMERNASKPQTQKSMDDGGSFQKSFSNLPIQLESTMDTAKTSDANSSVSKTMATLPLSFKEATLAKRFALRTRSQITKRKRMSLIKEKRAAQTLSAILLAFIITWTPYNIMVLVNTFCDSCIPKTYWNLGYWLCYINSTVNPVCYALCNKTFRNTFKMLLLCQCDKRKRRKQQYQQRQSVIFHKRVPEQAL
# Sequence of Histamine H1 receptor (P31389 whole entry): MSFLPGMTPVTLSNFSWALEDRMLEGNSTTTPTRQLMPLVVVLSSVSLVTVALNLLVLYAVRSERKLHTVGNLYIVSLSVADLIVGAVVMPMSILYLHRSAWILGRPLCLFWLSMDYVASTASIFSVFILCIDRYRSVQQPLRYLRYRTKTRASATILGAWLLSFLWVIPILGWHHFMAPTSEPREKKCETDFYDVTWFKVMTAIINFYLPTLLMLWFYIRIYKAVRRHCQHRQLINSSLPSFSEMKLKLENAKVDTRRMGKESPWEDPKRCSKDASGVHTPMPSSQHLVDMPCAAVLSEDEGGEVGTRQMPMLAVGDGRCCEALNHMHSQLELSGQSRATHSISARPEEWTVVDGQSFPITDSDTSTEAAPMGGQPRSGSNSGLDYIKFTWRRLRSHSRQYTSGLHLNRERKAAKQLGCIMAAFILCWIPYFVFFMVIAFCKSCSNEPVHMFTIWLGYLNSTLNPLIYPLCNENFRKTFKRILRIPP
# Sequence of Histamine H1 receptor (Cavia porcellus) (P31389 whole entry): as above
structure (smiles),measurement,setting,value
CCC(C)c1nc(N)nc(N2CCN(C)CC2)n1 (stereo not given),Ki,Histamine H4 receptor [1],725 nM
CCc1nc(N)nc(N2CCN(C)CC2)n1,Ki,Histamine H4 receptor [1],812 nM
CN1CCN(C(=O)c2cc3cc(Cl)ccc3[nH]2)CC1 [JNJ-7777120],Activity,Rattus norvegicus [2],63.66%
same,Activity,Mus musculus [3],inactive
same,Activity,Mus musculus [4],60.68%
same,Time,Rattus norvegicus [5],8.39 s
same,Activity,Rattus norvegicus [6],47.4%
same,Time,Rattus norvegicus [7],9.14 s
same,Activity,Rattus norvegicus [8],Active
same,Activity,Rattus norvegicus [9],22.11%
Cc1nc(N)nc(N2CCN(C)CC2)n1,Ki,Histamine H4 receptor [1],2660 nM
CN1CCN(c2nc(N)nc(CCCC3CCCCC3)n2)CC1,Ki,Histamine H4 receptor [1],> 10000 nM
CC(C)=Cc1nc(N)nc(N2CCN(C)CC2)n1,Ki,Histamine H4 receptor [1],470 nM
CN1CCN(c2nc(N)nc(CC3CCCCC3)n2)CC1,Activity,Rattus norvegicus [2],84.3%
same,Activity,Mus musculus [10],23.84%
same,ED50,Mus musculus [11],54.8 mg/kg
same,Activity,Rattus norvegicus [12],83.96%
same,Activity,Rattus norvegicus [13],Active
same,Activity,[14],Not Active
same,Ki,Histamine H4 receptor [1],160 nM
same,Time,Rattus norvegicus [15],7.06 s
same,Activity,Histamine H4 receptor [16],inactive
same,Activity,[17],Non-Toxic
same,Time,Rattus norvegicus [5],9.78 s
same,Kb,Histamine H1 receptor,1230 nM
same,Activity,Mus musculus [18],Active
same,Activity,Rattus norvegicus [19],Dose-dependent effect
same,pKb,Histamine H4 receptor [20],6.67 to 6.7
same,Time,Rattus norvegicus [21],9.43 s
same,Activity,Rattus norvegicus [6],41.3%
same,Time,Rattus norvegicus [7],<=10.49 s
same,Activity,Mus musculus [22],59.83%
same,Activity,Histamine H4 receptor [23],inactive
same,Activity,Rattus norvegicus [24],57.37%
same,Time,Rattus norvegicus [25],9.03 s
same,Activity,Rattus norvegicus [26],25.47%
same,Activity,[27],inactive
same,IC50,Histamine H4 receptor [28],32 nM
same,Activity,Rattus norvegicus [29],53.77%
same,Activity,Rattus norvegicus [30],21.73%
same,Kb,[31],2040 nM
same,Activity,Rattus norvegicus [32],8.69%
same,Time,Rattus norvegicus [33],10.05 s
same,Activity,Rattus norvegicus [9],19.56%
same,Activity,Mus musculus [34],Non-Toxic
CCC(CC)c1nc(N)nc(N2CCN(C)CC2)n1,Ki,Histamine H4 receptor [1],1330 nM
CC(C)Cc1nc(N)nc(N2CCN(C)CC2)n1,Ki,Histamine H4 receptor [1],529 nM
CN1CCN(c2nc(N)nc(CCC3CCCCC3)n2)CC1,Ki,Histamine H4 receptor [1],2850 nM
CN1CCN(c2nc(N)nc(C(C)(C)C)n2)CC1,Ki,Histamine H4 receptor [1],1080 nM
COCc1nc(N)nc(N2CCN(C)CC2)n1,Ki,Histamine H4 receptor [1],> 10000 nM
CCCc1nc(N)nc(N2CCN(C)CC2)n1,Ki,Histamine H4 receptor [1],185 nM
same,Activity,Histamine H4 receptor [16],inactive
same,IC50,Histamine H4 receptor [28],265 nM
CC(C)c1nc(N)nc(N2CCN(C)CC2)n1,Ki,Histamine H4 receptor [1],277 nM
CN1CCN(c2nc(N)nc(CC(C)(C)C)n2)CC1,Ki,Histamine H4 receptor [1],247 nM
